US20250206714A1, “COMPOSITIONS AND METHODS FOR TREATMENT OF INFLAMMATORY DISEASES” (Invea Therapeutics, Inc., priority 2022, published 2025)

Columns and labels:
CYP 1A2 = biological target: T1, CYP 1A2 (Homo sapiens, UniProt P05177); assay: Metabolic stability in human liver microsomes with CYP 1A2 inhibitor Furafylline; type: in vitro ADME; conditions: 1 μM + Furafylline (20 μM)
T1 construct: The experiment was conducted in human liver microsomes; from tissue; host or cells: human liver microsomes
T1 sequence (P05177 1-516): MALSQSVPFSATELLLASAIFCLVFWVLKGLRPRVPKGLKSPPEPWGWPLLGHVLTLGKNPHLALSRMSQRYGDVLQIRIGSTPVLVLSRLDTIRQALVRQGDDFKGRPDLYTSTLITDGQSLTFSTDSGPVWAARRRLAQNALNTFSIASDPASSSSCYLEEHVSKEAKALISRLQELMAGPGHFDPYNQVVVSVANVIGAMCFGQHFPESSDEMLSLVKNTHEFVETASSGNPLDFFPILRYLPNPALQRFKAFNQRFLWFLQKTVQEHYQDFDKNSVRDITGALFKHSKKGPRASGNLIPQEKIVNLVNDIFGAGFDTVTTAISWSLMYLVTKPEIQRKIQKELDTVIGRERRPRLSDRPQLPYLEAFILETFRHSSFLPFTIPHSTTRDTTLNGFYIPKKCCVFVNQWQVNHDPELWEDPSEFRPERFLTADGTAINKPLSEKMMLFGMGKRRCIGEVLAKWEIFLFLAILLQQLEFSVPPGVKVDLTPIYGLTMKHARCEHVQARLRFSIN

[1] = tested on: MDR1 transfected Madin-Darby canine kidney (MDCK) cell monolayer; assay: Permeability assay (MDR1-MDCK); design: Papp A→B at 60 min / Papp B→A at 60 min / efflux ratio at 60 min / recovery at 60 min / % recovery Apical concentration-Basal concentration / % recovery Basal concentration-Apical concentration: dose or concentration left out as unconfirmed; conditions: Permeability (MDR1-MDCK) @
Procedure: (§1) Digoxin is used as reference and lucifer yellow is used as the integrity marker. […] Papp, efflux ratio and percent recovery are calculated.

MDR1 = assay: in vitro; design: Papp A→B at 60 min / Papp B→A at 60 min / efflux ratio at 60 min / recovery at 60 min / % recovery Apical concentration-Basal concentration / % recovery Basal concentration-Apical concentration: dose or concentration left out as unconfirmed; conditions: dog, MDCK-MDR1
Procedure: as §1

MDR1 (P-gp) = assay: in vitro; design: Papp A→B at 60 min / Papp B→A at 60 min / efflux ratio at 60 min / recovery at 60 min / % recovery Apical concentration-Basal concentration / % recovery Basal concentration-Apical concentration: dose or concentration left out as unconfirmed; conditions: dog; for efflux ratio at 60 min: MDCK-MDR1
Procedure: as §1

IL-1β = assay: LPS+ATP-induced model of inflammasome activation, plasma IL-1β by ELISA; type: in vivo, Balb/c mice; conditions: 20 mg/kg, Intraperitoneal; mice plasma
Procedure: The procedures detailed here can be utilized for testing all compounds of the disclosure. The example utilizes LPS+ATP-induced model of inflammasome activation in 8-10 weeks old male Balb/c mice for in vivo testing.
8-10 weeks old male Balb/c mice were challenged by intraperitoneal (i.p.) injection of 200 μg/Kg (0.2 μg/g) LPS at t=0 hr, followed by i.p. injection of 5 mM solution of ATP at t=2 hr (2 h after LPS challenge). The compound of disclosure being tested for inhibitory activity (such as Compound 6) was administered both via intraperitoneal and oral route at −1 hr. Different doses of the compound of the disclosure were given to the mice […] as shown below.
MCC950, a specific small molecule inhibitor of NLRP3 inflammasome was used as a positive control to enable comparison of inhibitory activity of the compounds of the disclosure along with a known inhibitor. 2.5 hours after the LPS priming (or 0.5 hours after ATP administration), blood was collected via retro-orbital bleeding in heparinized blood collection tubes. Blood was centrifuged for 5 minutes at 10,000 rpm in a refrigerated centrifuge to obtain plasma. Separated plasma was used for cytokine assessment by ELISA. The standard curve (OD VS concentration) for IL-1β was also plotted and used to determine the IL-1β concentration for the OD values. The percentage of inhibition of IL-1β was calculated using the formula: […]

CYP 3A4 = CYP 3A4 (Homo sapiens, UniProt P08684); assay: Metabolic stability in human liver microsomes with CYP 3A4 inhibitor Ketoconazole; conditions: 1 μM + Ketoconazole (20 μM)
[2] = Metabolic stability assay in human liver microsomes in the presence of specific cytochrome P450 inhibitors (arm without inhibitor, summary statements); conditions: for % rem @ 5 min / % rem @ 15 min / % rem @ 30 min / % rem @ 45 min: 1 μM, no inhibitor
CYP 2C9 = biological target: T2, CYP 2C9 (Homo sapiens, UniProt P11712); assay: Metabolic stability in human liver microsomes with CYP 2C9 inhibitor Sulfaphenazole; type: in vitro ADME; conditions: 1 μM + Sulfaphenazole (20 μM)
T2 construct: The experiment was conducted in human liver microsomes; from tissue; host or cells: human liver microsomes

CYP 2C19 = biological target: T3, CYP 2C19 (Homo sapiens, UniProt P33261); assay: Metabolic stability in human liver microsomes with CYP 2C19 inhibitor Nootkatone; type: in vitro ADME; conditions: 1 μM + Nootkatone (20 μM)
T3 construct: The experiment was conducted in human liver microsomes; from tissue; host or cells: human liver microsomes

[3] = MDCK-MDR1, % recovery Apical concentration-Basal concentration
[4] = MDCK-MDR1, % recovery Basal concentration-Apical concentration
[5] = human, human liver microsomes, pH 7.4

T3 sequence (P33261 whole entry): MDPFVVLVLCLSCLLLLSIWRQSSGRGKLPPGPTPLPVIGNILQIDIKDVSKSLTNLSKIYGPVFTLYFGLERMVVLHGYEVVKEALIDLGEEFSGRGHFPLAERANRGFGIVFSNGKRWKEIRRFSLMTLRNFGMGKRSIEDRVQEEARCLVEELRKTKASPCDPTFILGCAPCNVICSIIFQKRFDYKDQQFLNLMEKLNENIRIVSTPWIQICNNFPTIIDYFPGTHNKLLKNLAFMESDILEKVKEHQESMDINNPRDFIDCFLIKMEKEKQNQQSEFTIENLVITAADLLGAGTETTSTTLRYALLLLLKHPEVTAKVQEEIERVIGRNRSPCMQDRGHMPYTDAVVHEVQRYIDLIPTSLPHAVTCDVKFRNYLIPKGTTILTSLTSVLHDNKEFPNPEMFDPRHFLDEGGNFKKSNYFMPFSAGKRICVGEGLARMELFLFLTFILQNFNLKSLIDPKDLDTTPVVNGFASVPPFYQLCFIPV
Chain of CYP 3A4 (P08684 whole entry): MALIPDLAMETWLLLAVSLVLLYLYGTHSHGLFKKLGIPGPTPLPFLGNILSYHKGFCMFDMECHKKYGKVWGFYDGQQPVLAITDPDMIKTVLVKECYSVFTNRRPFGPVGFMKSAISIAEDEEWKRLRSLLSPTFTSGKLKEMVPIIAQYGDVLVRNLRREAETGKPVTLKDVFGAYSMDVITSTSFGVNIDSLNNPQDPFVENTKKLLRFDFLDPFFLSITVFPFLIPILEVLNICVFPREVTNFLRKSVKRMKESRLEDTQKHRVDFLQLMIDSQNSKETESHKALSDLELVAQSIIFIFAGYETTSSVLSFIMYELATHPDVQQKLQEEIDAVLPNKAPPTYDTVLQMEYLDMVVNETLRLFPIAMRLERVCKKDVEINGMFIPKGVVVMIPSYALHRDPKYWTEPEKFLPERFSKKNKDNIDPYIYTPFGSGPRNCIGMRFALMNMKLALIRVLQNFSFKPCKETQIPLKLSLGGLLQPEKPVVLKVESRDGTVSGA
T2 sequence (P11712 whole entry): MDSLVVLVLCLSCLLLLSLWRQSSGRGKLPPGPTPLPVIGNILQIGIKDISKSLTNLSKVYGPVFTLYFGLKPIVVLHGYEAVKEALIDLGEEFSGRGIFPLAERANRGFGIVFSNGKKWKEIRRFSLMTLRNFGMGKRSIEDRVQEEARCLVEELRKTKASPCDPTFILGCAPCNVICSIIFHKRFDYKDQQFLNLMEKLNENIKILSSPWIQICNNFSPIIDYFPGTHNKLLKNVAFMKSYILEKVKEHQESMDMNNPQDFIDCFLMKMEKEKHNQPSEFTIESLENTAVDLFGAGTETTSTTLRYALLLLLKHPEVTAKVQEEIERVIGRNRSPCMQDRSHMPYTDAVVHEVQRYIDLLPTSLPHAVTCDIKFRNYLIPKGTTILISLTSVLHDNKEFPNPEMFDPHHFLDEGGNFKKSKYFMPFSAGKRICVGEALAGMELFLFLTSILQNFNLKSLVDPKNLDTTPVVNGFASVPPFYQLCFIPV

Molecule: CCOc1ccc(NC(C)=O)cc1 [Phenacetin, reference compound]
- % rem @ 5 min (CYP 1A2): ~100%
- % rem @ 15 min (CYP 1A2): ~100%
- % rem @ 30 min (CYP 1A2): ~100%
- % rem @ 45 min (CYP 1A2): 71.9%
- half-life at 1 µM (CYP 1A2; pH 7.4, with Furafylline 20 μM): 102 min
- microsomal CLint at 1 μM (CYP 1A2; pH 7.4, with Furafylline 20 μM, read-out: mCLint): 13.6 µL/min/mg

Molecule: Lucifer yellow
- % recovery Apical concentration-Basal concentration [1]: 97.2%
- % recovery Basal concentration-Apical concentration [1]: 97.1%

Molecule: CC(C)NCC(O)COc1cccc2ccccc12 (centres unmarked) [Propranolol]
- Papp A→B at 60 min (MDR1): 47.5 ×10⁻⁶ cm/s
- Papp B→A at 60 min (MDR1): 48.2 ×10⁻⁶ cm/s
- efflux ratio at 60 min (MDR1 (P-gp)): 1.01
- recovery at 60 min (MDR1 (P-gp); [3]): 71.5%
- recovery at 60 min (MDR1 (P-gp); [4]): ~100%

Molecule: CC(C)(O)c1coc(S(=O)(=O)NC(=O)Nc2c3c(cc4c2CCC4)CCC3)c1 [MCC950, reference compound]
- % IL-1 β inhibition (IL-1β): 95%

Molecule: Cc1ncc2n1-c1ccc(Cl)cc1C(c1ccccc1F)=NC2 [Midazolam]
- % rem @ 5 min (CYP 3A4): 96.7%
- % rem @ 15 min (CYP 3A4): 97.1%
- % rem @ 30 min (CYP 3A4): ~100%
- % rem @ 45 min (CYP 3A4): ~100%
- % rem @ 5 min ([2]; human liver microsomes): 22.0%
- % rem @ 15 min ([2]; human liver microsomes): 2.77%
- % rem @ 30 min ([2]; human liver microsomes): <1%
- % rem @ 45 min ([2]; human liver microsomes): <1%
- half-life at 1 µM ([2]; human, microsomes, pH 7.4): 5.21 min

Molecule: C[C@H]1O[C@@H](O[C@H]2[C@@H](O)C[C@H](O[C@H]3[C@@H](O)C[C@H](O[C@H]4CC[C@@]5(C)[C@H](CC[C@@H]6[C@@H]5C[C@@H](O)[C@]5(C)[C@@H](C7=CC(=O)OC7)CC[C@]65O)C4)O[C@@H]3C)O[C@@H]2C)C[C@H](O)[C@@H]1O [Digoxin]
- Papp A→B at 60 min (MDR1): 0.28 ×10⁻⁶ cm/s
- Papp B→A at 60 min (MDR1): 15.2 ×10⁻⁶ cm/s
- efflux ratio at 60 min (MDR1 (P-gp)): 54.3
- recovery at 60 min (MDR1 (P-gp); [3]): 99.9%
- recovery at 60 min (MDR1 (P-gp); [4]): ~100%

Molecule: O=C(O)Cc1ccccc1Nc1c(Cl)cccc1Cl [Diclofenac, reference compound]
- % rem @ 5 min (CYP 2C9): ~100%
- % rem @ 15 min (CYP 2C9): ~100%
- % rem @ 30 min (CYP 2C9): 91.9%
- % rem @ 45 min (CYP 2C9): 82.0%
- half-life at 1 µM (CYP 2C9; pH 7.4, with Sulfaphenazole 20 μM): 131 min
- microsomal CLint at 1 μM (CYP 2C9; pH 7.4, with Sulfaphenazole 20 μM, read-out: mCLint): 10.6 µL/min/mg
- % rem @ 5 min ([2]; human liver microsomes): 49.5%
- % rem @ 15 min ([2]; human liver microsomes): 28.3%
- % rem @ 30 min ([2]; human liver microsomes): 10.5%
- % rem @ 45 min ([2]; human liver microsomes): 4.93%

Molecule: COc1ccc2[nH]c([S+]([O-])Cc3ncc(C)c(OC)c3C)nc2c1 (centres unmarked) [Omeprazole, reference compound]
- % rem @ 5 min (CYP 2C19): 94.8%
- % rem @ 15 min (CYP 2C19): 92.7%
- % rem @ 30 min (CYP 2C19): 85.0%
- % rem @ 45 min (CYP 2C19): 55.6%
- half-life at 1 µM (CYP 2C19; pH 7.4, with Nootkatone 20 μM): 59.3 min
- microsomal CLint at 1 μM (CYP 2C19; pH 7.4, with Nootkatone 20 μM, read-out: mCLint): 23.4 µL/min/mg
- % rem @ 5 min ([2]; human liver microsomes): 95.9%
- % rem @ 15 min ([2]; human liver microsomes): 71.1%
- % rem @ 30 min ([2]; human liver microsomes): 60.1%
- % rem @ 45 min ([2]; human liver microsomes): 28.8%
- half-life at 1 µM [2, 5]: 26.4 min
- microsomal CLint at 1 μM [2, 5]: 52.6 µL/min/mg
